{"source": "patent US7196110B2", "about": "“N-substituted tricyclic 3-aminopyrazoles as inhibitors for the treatment of cell proliferative disorders” (Janssen Phamaceutica N.V., priority 2002, dated 2007)", "tested_on": "DU145 (prostate cancer)", "assay": "Clonogenicity assay, compound in combination with irradiation, DU145", "assay_type": "cell-based, human", "procedure": "Radiotherapy is a major therapeutic modality in treating many types of cancers including human prostate and ovarian cancers. The anti-proliferative activity of compounds within the scope of the invention was tested in combination with irradiation treatment.\nCells DU145 (prostate cancer) and MDAH2774 (ovarian cancer) were obtained from ATCC; growth media MEM medium (Mediatech, Herndon, Va.) was supplemented with 8% FBS, 5 U/ml penicillin and 50 μg/ml Streptomycin (Hyclone, Logan, Utah), 2 mM L-glutamine (Hyclone, Logan, Utah), 25 mM HEPES (Hyclone, Logan, Utah); McCoy's 5A medium (Mediatech, Herndon, Va.) was supplemented with 8% FBS, 50 U/ml penicillin and 50 μg/ml-Strep (Hyclone, Logan, Utah) and Glutamine 2 mM L-glutamine (Hyclone, Logan, Utah), ^137CS γ-source was a Gammacell 1000 Elite irradiator (MDS Nordion, Kanata, Ontario, Canada); DMSO; 1× PBS; Methanol; 0.25% Crystal Violet, and 60 mm tissue culture dishes.\nDU145 or MDAH2774 cells at desired cell number were plated in early log phase on 60 mm dishes in MEM medium supplemented with 8% FBS, Penicillin, Streptomycin, L-glutamine, or McCoys medium supplemented with 8% FBS, Penicillin, Streptomycin and Glutamine, respectively. Cells were plated in triplicate. […] The final concentrations of the compound in the cell media ranged from 1 to 100 nM. After 24 h incubation with the test compound plates were split in two groups of equal size. The plates in the first group were irradiated with 7.3 Gy (plates containing DU145 cells) or 5.4 Gy (plates containing MDAH2774 cells) using a ^137Cs γ-source (dose rate 3.32 Gy/min). The second group of plates were treated identically but not irradiated. Cells were incubated for an additional 24 hours in medium containing test compound. Then, the cells were replenished with fresh compound-free identical medium and allowed to grow for an additional 11 days. Cells were then fixed with methanol, stained with 0.25% crystal violet, and the clones containing more than 50 cells were counted.\nThe activity appeared to be concentration-dependent with more dramatic effects achieved at 100 nM compound with radiation in either cell line."}
{"smiles": "COc1cc2c(cc1OC)-c1n[nH]c(Nc3cccc(F)c3)c1C2", "note": "[Compound 14, (3-Fluoro-phenyl)-(6,7-dimethoxy-2,4-dihydro-indeno[1,2-c]pyrazol-3-yl)-amine]", "values": [{"measurement": "colony formation inhibition with versus without radiation, DU145", "setting": "7.3 Gy, compound 1 to 100 nM", "result": "the inhibitory effect was greater with radiation"}, {"measurement": "No. of DU145 Clones (average of three plates)", "setting": "W/o Radiation, 200 cells initially plated, compound 1 nM", "result": 118}, {"measurement": "No. of DU145 Clones (average of three plates)", "setting": "W/o Radiation, 200 cells initially plated, compound 3 nM", "result": 108}, {"measurement": "No. of DU145 Clones (average of three plates)", "setting": "W/o Radiation, 200 cells initially plated, compound 10 nM", "result": 111}, {"measurement": "No. of DU145 Clones (average of three plates)", "setting": "W/o Radiation, 200 cells initially plated, compound 30 nM", "result": 100}, {"measurement": "No. of DU145 Clones (average of three plates)", "setting": "W/o Radiation, 200 cells initially plated, compound 100 nM", "result": 22}, {"measurement": "concentration from which marked inhibitory activity against colony formation was shown, DU145", "setting": "in the presence or absence of radiation (7.3 Gy)", "result": "≥ 30", "unit": "nM"}, {"measurement": "No. of DU145 Clones (average of three plates)", "setting": "w/Radiation (7.3 Gy), 1200 cells initially plated, compound 1 nM", "result": 117}, {"measurement": "No. of DU145 Clones (average of three plates)", "setting": "w/Radiation (7.3 Gy), 1200 cells initially plated, compound 3 nM", "result": 100}, {"measurement": "No. of DU145 Clones (average of three plates)", "setting": "w/Radiation (7.3 Gy), 1200 cells initially plated, compound 10 nM", "result": 126}, {"measurement": "No. of DU145 Clones (average of three plates)", "setting": "w/Radiation (7.3 Gy), 1200 cells initially plated, compound 30 nM", "result": 57}, {"measurement": "No. of DU145 Clones (average of three plates)", "setting": "w/Radiation (7.3 Gy), 1200 cells initially plated, compound 100 nM", "result": 5}]}
